This is an account of results in article PMC6360668, “Discovery and evaluation of ZT55, a novel highly-selective tyrosine kinase inhibitor of JAK2^V617F against myeloproliferative neoplasms” (Journal of Experimental & Clinical Cancer Research : CR, 2019).

As a reminder, the IC50 is the point on the concentration scale where inhibition reaches its midpoint.

For this experiment, the target named is JAK2 (Homo sapiens, UniProt O60674). Nature of the experiment: HTRF KinEASE cell-free kinase assay with recombinant human JAK2. The format is biochemical. (In general: TR-FRET usually uses a lanthanide donor and a delayed reading to cut background.)
JAK2, sequence (O60674 whole entry): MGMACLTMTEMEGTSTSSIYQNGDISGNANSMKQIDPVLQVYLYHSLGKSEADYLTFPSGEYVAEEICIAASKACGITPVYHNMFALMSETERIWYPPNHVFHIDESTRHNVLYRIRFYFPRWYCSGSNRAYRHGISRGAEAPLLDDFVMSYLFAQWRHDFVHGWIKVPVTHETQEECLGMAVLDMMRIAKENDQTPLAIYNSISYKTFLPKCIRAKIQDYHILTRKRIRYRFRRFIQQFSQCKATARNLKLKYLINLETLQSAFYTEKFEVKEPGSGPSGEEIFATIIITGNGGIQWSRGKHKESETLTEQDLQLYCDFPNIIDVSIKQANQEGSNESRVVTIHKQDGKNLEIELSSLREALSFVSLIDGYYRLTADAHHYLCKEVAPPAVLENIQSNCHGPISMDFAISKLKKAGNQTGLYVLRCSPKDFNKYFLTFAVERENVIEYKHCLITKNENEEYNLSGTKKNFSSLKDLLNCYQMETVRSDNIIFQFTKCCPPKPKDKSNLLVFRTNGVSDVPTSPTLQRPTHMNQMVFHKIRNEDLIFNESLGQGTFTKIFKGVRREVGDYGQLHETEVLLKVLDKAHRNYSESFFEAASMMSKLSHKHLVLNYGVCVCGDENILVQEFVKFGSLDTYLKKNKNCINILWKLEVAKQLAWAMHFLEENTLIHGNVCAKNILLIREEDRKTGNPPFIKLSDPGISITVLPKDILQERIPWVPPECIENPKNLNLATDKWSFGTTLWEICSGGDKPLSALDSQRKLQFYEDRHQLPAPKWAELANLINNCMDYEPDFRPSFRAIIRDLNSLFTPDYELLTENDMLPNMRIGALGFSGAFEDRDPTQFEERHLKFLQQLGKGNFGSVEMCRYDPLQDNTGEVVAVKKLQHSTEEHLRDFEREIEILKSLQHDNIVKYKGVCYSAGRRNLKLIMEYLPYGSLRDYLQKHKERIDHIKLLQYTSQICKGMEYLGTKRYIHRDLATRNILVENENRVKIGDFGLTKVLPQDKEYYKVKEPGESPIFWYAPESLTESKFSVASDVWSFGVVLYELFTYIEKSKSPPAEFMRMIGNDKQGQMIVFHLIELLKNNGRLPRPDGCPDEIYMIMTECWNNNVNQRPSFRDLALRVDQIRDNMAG

`COc1ccccc1NC(=O)Cc1cn(O)c2ccccc12` [ZT55]: the IC50 worked out at 31 nM.
